# Test results from US8431613B2, “Memory fixation accelerator” (Research Foundation ITSUU Laboratory, priority 2004, dated 2013).
# Marks after values point to notes of the source that are not given here.
# System: Slc:Wistar male rats given scopolamine
# Test: Passive avoidance reaction (shuttle type avoidance test box) in scopolamine-treated rats
# Assay type: in vivo, rat
# Conditions: for latent time compared with the control group: Example 2, scopolamine 0.25 or 0.5 mg/kg, drug treatment from the 2nd day
# Description: 6-Week old Slc:Wistar male rats were used for the experiment after preliminary breeding including one week of quarantine. The animals were individually bred under an environment at a temperature of 22±3° C. and a humidity of 50±20% with illumination of 12 hours (8:00 to 20:00) for both the preliminary breeding and experimental periods, and the animals were given pellets (Labo MR Stock, Nihon Nosan Kogyo K.K.) and tap water ad libitum. The animals were divided into groups according to body weights as an index (10 animals/group), and trials for acquisition and reproduction of memory were performed. Each trial was performed by using a shuttle type avoidance test box. […] Each animal was put into the light room, time until the animal moved to the dark room (latent time) was measured up to 5 minutes, and when the rat moved to the darkroom, the partition was shut, and shock was given by electrification.
# Each animal was subcutaneously given 0.5 mg/kg of scopolamine 30 minutes before the trial, and this procedure was continued for seven days. Scopolamine, which is an anticholinergic agent, is known to block the muscarinic acetylcholine receptor in the striate body and inhibit acquisition of new memory (Folia Pharmacol. Jpn., 97, pp. 351-359, 1991). From the third day, the test substance (Am80: 4-[(5,6,7,8-tetrahydro-5,5,8,8-tetramethyl-2-naphthalenyl)carbamoyl]benzoic acid, 10 mg/kg/day) was orally given 3 hours before the scopolamine treatment. With numerical values obtained, average and standard deviation were calculated for each group, and a homoscedasticity test was performed by F-test between the control group (no Am80 treatment) and Am80-treated group. When homoscedasticity was observed, presence or absence of significant difference was determined by Student's t-test, and when non-homoscedasticity was observed, presence or absence of significant difference was determined by Aspin-Welch's t-test.
# A test was performed in the same manner as that of Example 1, except that scopolamine was given at a dose of 0.25 mg/kg or 0.5 mg/kg, and 2 mg/kg, 5 mg/kg or 12.5 mg/kg of Am80, 30 mg/kg of Tac101 (4-[(3,5-bis-trimethylsilylphenyl)-carboxamido]benzoic acid), and 10 mg/kg of HX630 (4-[2,3-(2,5-dimethyl-2,5-hexano)dibenzo[b,f][1,4]thiazepin-11-yl]benzoic acid) were given. Combinatory use of Am80 (5 mg/kg) and HX630 (10 mg/kg) was also similarly examined. Drug treatment was performed from the 2nd day.
# In the same manner as that of Example 2, scopolamine was given at a dose of 0.25 mg/kg, and 10 mg/kg of 4-[5-(4,7-dimethylbenzofuran-2-yl)pyrrol-2-yl]benzoic acid (IT-K-1001) was orally given.
compound,measurement,setting,value
"CC1(C)CCC(C)(C)c2cc(NC(=O)c3ccc(C(=O)O)cc3)ccc21 [Am80, 4-[(5,6,7,8-tetrahydro-5,5,8,8-tetramethyl-2-naphthalenyl)carbamoyl]benzoic acid]",Reaction latency,"Am80 2 mg/kg/day from 2nd day, SCP 0.5 mg/kg/day, lapsed day 1",14 s
same,Reaction latency,"Am80 2 mg/kg/day from 2nd day, SCP 0.5 mg/kg/day, lapsed day 2",9 s
same,Reaction latency,"Am80 2 mg/kg/day from 2nd day, SCP 0.5 mg/kg/day, lapsed day 3",23 s
same,Reaction latency,"Am80 2 mg/kg/day from 2nd day, SCP 0.5 mg/kg/day, lapsed day 4",24 s
same,Reaction latency,"Am80 2 mg/kg/day from 2nd day, SCP 0.5 mg/kg/day, lapsed day 5",38 s
same,Reaction latency,"Am80 5 mg/kg/day from 2nd day, SCP 0.25 mg/kg/day, lapsed day 1",14 s
same,Reaction latency,"Am80 5 mg/kg/day from 2nd day, SCP 0.25 mg/kg/day, lapsed day 2",15 s
same,Reaction latency,"Am80 5 mg/kg/day from 2nd day, SCP 0.25 mg/kg/day, lapsed day 3",53 s
same,Reaction latency,"Am80 5 mg/kg/day from 2nd day, SCP 0.25 mg/kg/day, lapsed day 4",80 s
same,Reaction latency,"Am80 5 mg/kg/day from 2nd day, SCP 0.25 mg/kg/day, lapsed day 5",155 s
same,Reaction latency,"Am80 5 mg/kg/day from 2nd day, SCP 0.5 mg/kg/day, lapsed day 1",19 s
same,Reaction latency,"Am80 5 mg/kg/day from 2nd day, SCP 0.5 mg/kg/day, lapsed day 2",18 s
same,Reaction latency,"Am80 5 mg/kg/day from 2nd day, SCP 0.5 mg/kg/day, lapsed day 3",38 s
same,Reaction latency,"Am80 5 mg/kg/day from 2nd day, SCP 0.5 mg/kg/day, lapsed day 4",52 s
same,Reaction latency,"Am80 5 mg/kg/day from 2nd day, SCP 0.5 mg/kg/day, lapsed day 5",71 s
same,Reaction latency,"Am80 10 mg/kg/day oral from 3rd day, scopolamine 0.5 mg/kg s.c., lapsed day 1 (before treatment)",15 s
same,Reaction latency,"Am80 10 mg/kg/day oral from 3rd day, scopolamine 0.5 mg/kg s.c., lapsed day 2 (before treatment)",14 s
same,Reaction latency,"Am80 10 mg/kg/day oral from 3rd day, scopolamine 0.5 mg/kg s.c., lapsed day 3",26 s
same,Reaction latency,"Am80 10 mg/kg/day oral from 3rd day, scopolamine 0.5 mg/kg s.c., lapsed day 4",88 s
same,Reaction latency (second),"Am80 10 mg/kg/day oral from 3rd day, scopolamine 0.5 mg/kg s.c., lapsed day 5",149** second
same,Reaction latency (second),"Am80 10 mg/kg/day oral from 3rd day, scopolamine 0.5 mg/kg s.c., lapsed day 6",163** second
same,Reaction latency (second),"Am80 10 mg/kg/day oral from 3rd day, scopolamine 0.5 mg/kg s.c., lapsed day 7",162** second
same,Reaction latency,"Am80 12.5 mg/kg/day from 2nd day, SCP 0.5 mg/kg/day, lapsed day 1",15 s
same,Reaction latency,"Am80 12.5 mg/kg/day from 2nd day, SCP 0.5 mg/kg/day, lapsed day 2",24 s
same,Reaction latency,"Am80 12.5 mg/kg/day from 2nd day, SCP 0.5 mg/kg/day, lapsed day 3",43 s
same,Reaction latency,"Am80 12.5 mg/kg/day from 2nd day, SCP 0.5 mg/kg/day, lapsed day 4",74 s
same,Reaction latency,"Am80 12.5 mg/kg/day from 2nd day, SCP 0.5 mg/kg/day, lapsed day 5",133 s
same,"latent time, course from the start of the treatment","Example 1, Am80 10 mg/kg/day oral, scopolamine 0.5 mg/kg s.c., significant differences vs control from the 5th day",gradually extended
same,latent time compared with the control group,,gradually extended
"CC1(C)CCC(C)(C)c2cc3c(cc21)Sc1ccccc1N=C3c1ccc(C(=O)O)cc1 [HX630, 4-[2,3-(2,5-dimethyl-2,5-hexano)dibenzo[b,f][1,4]thiazepin-11-yl]benzoic acid]",latent time compared with the control group,,gradually extended
same,Reaction latency,"HX630 10 mg/kg/day from 2nd day, SCP 0.5 mg/kg/day, lapsed day 1",18 s
same,Reaction latency,"HX630 10 mg/kg/day from 2nd day, SCP 0.5 mg/kg/day, lapsed day 2",21 s
same,Reaction latency,"HX630 10 mg/kg/day from 2nd day, SCP 0.5 mg/kg/day, lapsed day 3",30 s
same,Reaction latency,"HX630 10 mg/kg/day from 2nd day, SCP 0.5 mg/kg/day, lapsed day 4",33 s
same,Reaction latency,"HX630 10 mg/kg/day from 2nd day, SCP 0.5 mg/kg/day, lapsed day 5",51 s
"Cc1ccc(C)c2oc(-c3ccc(-c4ccc(C(=O)O)cc4)[nH]3)cc12 [IT-K-1001, 4-[5-(4,7-dimethylbenzofuran-2-yl)pyrrol-2-yl]benzoic acid]",effect on the action of scopolamine (reaction latency),"Example 3, 10 mg/kg oral, scopolamine 0.25 mg/kg",markedly inhibited the effect of scopolamine
same,Reaction latency,"IT-K-1001 10 mg/kg/day oral, SCP 0.25 mg/kg/day, lapsed day 1",22 s
same,Reaction latency,"IT-K-1001 10 mg/kg/day oral, SCP 0.25 mg/kg/day, lapsed day 2",11 s
same,Reaction latency,"IT-K-1001 10 mg/kg/day oral, SCP 0.25 mg/kg/day, lapsed day 3",106 s
same,Reaction latency,"IT-K-1001 10 mg/kg/day oral, SCP 0.25 mg/kg/day, lapsed day 4",115 s
same,Reaction latency,"IT-K-1001 10 mg/kg/day oral, SCP 0.25 mg/kg/day, lapsed day 5",206 s
same,Reaction latency,"IT-K-1001 10 mg/kg/day oral, SCP 0.25 mg/kg/day, lapsed day 6",291 s
same,Reaction latency,"IT-K-1001 10 mg/kg/day oral, SCP 0.25 mg/kg/day, lapsed day 7",300 s
same,Reaction latency,"IT-K-1001 10 mg/kg/day oral, SCP 0.25 mg/kg/day, lapsed day 8",281 s
"C[Si](C)(C)c1cc(C(=O)Nc2ccc(C(=O)O)cc2)cc([Si](C)(C)C)c1 [Tac101, 4-[(3,5-bis-trimethylsilylphenyl)-carboxamido]benzoic acid]",latent time compared with the control group,,gradually extended
same,Reaction latency,"Tac101 30 mg/kg/day from 2nd day, SCP 0.5 mg/kg/day, lapsed day 1",19 s
same,Reaction latency,"Tac101 30 mg/kg/day from 2nd day, SCP 0.5 mg/kg/day, lapsed day 2",21 s
same,Reaction latency,"Tac101 30 mg/kg/day from 2nd day, SCP 0.5 mg/kg/day, lapsed day 3",47 s
same,Reaction latency,"Tac101 30 mg/kg/day from 2nd day, SCP 0.5 mg/kg/day, lapsed day 4",69 s
same,Reaction latency,"Tac101 30 mg/kg/day from 2nd day, SCP 0.5 mg/kg/day, lapsed day 5",107 s
